Drawing on patent US4843087A (priority 1986, dated 1989), this text covers MIC, MIC50 and IC (MIC80 of serotype panel) for 16 molecules.

Converted amounts (≈) assume the structure as drawn.

In assay [1] the test system is Polio 2. Briefly: microbe, parasite or virus in culture. The class given is cell-based, poliovirus. As to conditions: Enterovirus C, HeLa, read-out: Polio 2 MIC.
In assay [2] the test system is human rhinovirus (HRV) serotypes. Briefly: microbe, parasite or virus in culture. The class given is cell-based. To be noted: for MIC50: read-out: Rhinovirus MIC50; for IC (MIC80 of serotype panel): read-out: Rhinovirus MIC80.

As to `Cc1cc(CCCCOc2ccc(C3=NCCO3)cc2)on1` [21 (b), 5-{4-[4-(4,5-Dihydro-2-oxazolyl)phenoxy]butyl}-3-methylisoxazole], the MIC in assay [1] worked out at 0.5 µg/mL (≈ 1.66 µM).

As for `Cc1cc(CCCCCCCOc2ccc(-c3ncco3)cc2)on1` [87(b), 3-Methyl-5-{7-[4-(2-oxazolyl)phenoxy]heptyl}isoxazole], the MIC in assay [1] was determined as 0.04 µg/mL (≈ 0.118 µM).

With `Cc1cc(CCC2CCC(COc3ccc(C4=NCCO4)cc3)CC2)on1` (centres unmarked) [101 (b), 5-{2-[4-[[4-(4,5-Dihydro-2-oxazolyl)phenoxy]methyl]cyclohexyl]ethyl}-3-methylisoxazole], the MIC in assay [1] is 0.65 µg/mL (≈ 1.76 µM).

Turning to `OCc1cc(CCCCCCCOc2ccc(C3=NCCO3)cc2)on1` [Example 11, 5-{7-[4-(4,5-Dihydro-2-oxazolyl)phenoxy]heptyl}-3-isoxazolemethanol], in assay [1], the MIC was found to be 0.02 µg/mL (≈ 0.0558 µM).

As to `Cc1cc(C(O)CCCCCCOc2ccc(C3=NCCO3)cc2)on1` (stereo not drawn) [Example 12, α-{6-[4-(4,5-dihydro-2-oxazolyl)phenoxy]hexyl}-3-methyl-5-isoxazolemethanol], in assay [1], the MIC was 0.08 µg/mL (≈ 0.223 µM).

As for `Cc1cc(CCCCCCCCOc2ccc(C3=NCCO3)cc2Cl)on1` [Example 22, 5-{8-[2-Chloro-4-(4,5-dihydro-2-oxazolyl)phenoxy]octyl}-3-methylisoxazole], the MIC in assay [1] came out at 1.1 µg/mL (≈ 2.81 µM).

In the case of `CC(=O)OCc1cc(CCCCCCCOc2ccc(C3=NCCO3)cc2)on1` [Example 28, 5-{7-[4-(4,5-Dihydro-2-oxazolyl)phenoxy]heptyl}-3-isoxazolemethanol acetate], the MIC in assay [1] worked out at 0.007 µg/mL.

With `Cc1cc(CCCCCOc2cccc(C3=NCCO3)c2)on1` [Example 30, 5-{5-[3-(4,5-Dihydro-2-oxazolyl)phenoxy]pentyl}-3-methylisoxazole], the MIC in assay [1] is more than 0.2 µg/mL.

In the case of `Cc1cc(CCCCCOc2ccc(C3=NCCO3)cc2Cl)no1` [Example 37, 3-{5-[2-Chloro-4-(4,5-dihydro-2-oxazolyl)phenoxy]pentyl}-5-methylisoxazole], in assay [1], the MIC came to 0.4 µg/mL (≈ 1.15 µM).

`Cc1cc(CCCCCCCOc2ccc(C3=NCCO3)cc2C=O)on1` [Example 69, 5-{7-[4-(4,5-Dihydro-2-oxazolyl)-2-formylphenoxy]heptyl}-3-methylisoxazole]: the MIC in assay [1] is 0.44 µg/mL (≈ 1.19 µM).

`Cc1cc(CCCOCOCCOc2ccc(C3=NCCO3)cc2)on1` [Example 73, 5-{3-[[2-[4-(4,5-Dihydro-2-oxazolyl)phenoxy]ethoxy]methoxy]propyl}-3-methylisoxazole]: the MIC in assay [1] is 0.46 µg/mL (≈ 1.28 µM).

For `Cc1cc(CCCCCCCOc2ccc(C3=NC[C@@H](C)O3)cc2)on1` [Example 123, (R)-5-{7-[4-(4,5-Dihydro-5-methyl-2-oxazolyl)phenoxy]heptyl}-3-methylisoxazole], the MIC in assay [1] amounted to 1.01 µg/mL (≈ 2.83 µM).

Consider `Cc1cc(CCCCCOc2c(Cl)cc(C3=NC(CO)CO3)cc2Cl)on1` (centres unmarked) [Example 138, 5-{5-[2,6-Dichloro-4-(4,5-dihydro-4-hydroxymethyl-2-oxazolyl)phenoxy]pentyl}-3-methylisoxazole], for which, in assay [2], the MIC50 came out at 0.2 µg/mL (≈ 0.484 µM) and the IC (MIC80 of serotype panel) is 1.2 µg/mL.

On to `C=CCC1COC(c2ccc(OCCCCCCCc3cc(C)no3)cc2)=N1` (centres unmarked) [Example 139, 5-{7-[4-(4,5-Dihydro-4-(2-propenyl)-2-oxazolyl)phenoxy]heptyl}-3-methylisoxazole], for which, in assay [2], the MIC50 came to 0.795 µg/mL (≈ 2.08 µM) and the IC (MIC80 of serotype panel) was found to be 25.9 µg/mL.

For the molecule `Cc1cc(CCCCCCCOc2ccc(C3=NC(CCl)CO3)cc2)on1` (centres unmarked) [Example 140, 5-{7-[4-(4-Chloromethyl-4,5-dihydro-2-oxazolyl)phenoxy]heptyl}-3-methylisoxazole], in assay [2], the MIC50 was determined as 0.49 µg/mL (≈ 1.25 µM) and the IC (MIC80 of serotype panel) came out at 26.9 µg/mL.

As to `Cc1cc(CCCCCOc2c(C)cc(C3=NCCO3)c(Cl)c2C)on1` [Example 160, 5-{5-[3-Chloro-4-(4,5-dihydro-2-oxazolyl)-2,6-dimethylphenoxy]pentyl}-3-methylisoxazole], in assay [2], the MIC50 was 0.24 µg/mL (≈ 0.637 µM) and the IC (MIC80 of serotype panel) was found to be 0.4 µg/mL.
